# Reference: ChEMBL document CHEMBL1201862, “PubChem BioAssay data set” (2004)
#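 All cell lines were grown in 96-well plates and treated with compound for 48 hours. At the GI50, growth is halved.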 The source made the active and inactive calls. No stated cut-off is given here; in the data, active = GI50 up to about 1.1 µM and inactive = higher.
# How the values were obtained:
# Test in all cases: growth of human tumour cells (NCI), 48 h
# MOLT-4 = system: MOLT-4
# KM12 = system: KM12
# MCF7 = system: MCF7
# PC-3 = system: PC-3
# M14 = system: M14
# SR = system: SR
# HCT-15 = system: HCT-15
# SN12C = system: SN12C
# SK-MEL-28 = system: SK-MEL-28
# HOP-92 = system: HOP-92
# HCT-116 = system: HCT-116
# CAKI-1 = system: CAKI-1
# SF-268 = system: SF-268
# K562 = system: K562
# COLO 205 = system: COLO 205
# SNB-75 = system: SNB-75
# SF-295 = system: SF-295
# NCI-H226 = system: NCI-H226
# DU-145 = system: DU-145
# UO-31 = system: UO-31
# RPMI-8226 = system: RPMI-8226
# NCI-H460 = system: NCI-H460
# SK-MEL-5 = system: SK-MEL-5
# HOP-62 = system: HOP-62
# SNB-19 = system: SNB-19
# HCC 2998 = system: HCC 2998
# OVCAR-5 = system: OVCAR-5
# UACC-257 = system: UACC-257
# MDA-MB-435 = system: MDA-MB-435
# T47D = system: T47D
# TK-10 = system: TK-10
# CCRF-CEM = system: CCRF-CEM
# U-251 = system: U-251
# SW-620 = system: SW-620
# OVCAR-4 = system: OVCAR-4
# NCI/ADR-RES = system: NCI/ADR-RES
# SF-539 = system: SF-539
# OVCAR-3 = system: OVCAR-3
# NCI-H23 = system: NCI-H23
# OVCAR-8 = system: OVCAR-8
# RXF 393 = system: RXF 393
# HT-29 = system: HT-29
# SK-MEL-2 = system: SK-MEL-2
# HL-60 = system: HL-60
# ACHN = system: ACHN
# IGROV-1 = system: IGROV-1
# LOX IMVI = system: LOX IMVI
# BT-549 = system: BT-549
# UACC-62 = system: UACC-62
# Malme-3M = system: Malme-3M
# MDA-N = system: MDA-N
# 786-0 = system: 786-0
# EKVX = system: EKVX
# NCI-H522 = system: NCI-H522
smiles,measurement,setting,value
O=C(NCc1cccc2ccccc12)N/N=C\c1ccc(Cl)cc1,GI50,MOLT-4,> 100 µM (inactive)
same,GI50,KM12,49 µM (inactive)
same,GI50,MCF7,43.3 µM (inactive)
same,GI50,PC-3,> 100 µM (inactive)
same,GI50,M14,74.5 µM (inactive)
same,GI50,SR,> 100 µM (inactive)
same,GI50,HCT-15,> 100 µM
same,GI50,SN12C,> 100 µM (inactive)
same,GI50,SK-MEL-28,> 100 µM (inactive)
same,GI50,HOP-92,74.8 µM (inactive)
same,GI50,HCT-116,> 100 µM (inactive)
same,GI50,CAKI-1,43.2 µM (inactive)
same,GI50,SF-268,93.8 µM (inactive)
same,GI50,K562,> 100 µM (inactive)
same,GI50,COLO 205,> 100 µM (inactive)
same,GI50,SNB-75,62.8 µM (inactive)
same,GI50,SF-295,53.5 µM (inactive)
same,GI50,NCI-H226,> 100 µM (inactive)
same,GI50,DU-145,> 100 µM (inactive)
same,GI50,UO-31,> 100 µM (inactive)
same,GI50,RPMI-8226,77.1 µM (inactive)
same,GI50,NCI-H460,67 µM (inactive)
same,GI50,SK-MEL-5,46 µM (inactive)
same,GI50,HOP-62,> 100 µM (inactive)
same,GI50,SNB-19,> 100 µM (inactive)
same,GI50,HCC 2998,57.7 µM (inactive)
same,GI50,OVCAR-5,> 100 µM (inactive)
same,GI50,UACC-257,> 100 µM (inactive)
same,GI50,MDA-MB-435,28.1 µM (inactive)
same,GI50,T47D,> 100 µM (inactive)
same,GI50,TK-10,> 100 µM (inactive)
same,GI50,CCRF-CEM,> 100 µM (inactive)
same,GI50,U-251,> 100 µM (inactive)
same,GI50,SW-620,88.3 µM (inactive)
same,GI50,OVCAR-4,> 100 µM (inactive)
same,GI50,NCI/ADR-RES,> 100 µM (inactive)
same,GI50,SF-539,> 100 µM (inactive)
same,GI50,OVCAR-3,> 100 µM (inactive)
same,GI50,NCI-H23,> 100 µM (inactive)
same,GI50,OVCAR-8,> 100 µM (inactive)
same,GI50,RXF 393,> 100 µM (inactive)
same,GI50,HT-29,> 100 µM (inactive)
same,GI50,SK-MEL-2,> 100 µM (inactive)
same,GI50,HL-60,> 100 µM (inactive)
same,GI50,ACHN,> 100 µM (inactive)
same,GI50,IGROV-1,> 100 µM (inactive)
same,GI50,LOX IMVI,> 100 µM (inactive)
same,GI50,BT-549,> 100 µM (inactive)
same,GI50,UACC-62,> 100 µM (inactive)
same,GI50,Malme-3M,> 100 µM (inactive)
same,GI50,MDA-N,9.82 µM (inactive)
same,GI50,786-0,> 100 µM (inactive)
same,GI50,EKVX,36.1 µM (inactive)
same,GI50,NCI-H522,36.6 µM (inactive)
